The values that follow come from patent publication US8822449B2, “Substituted aminoindanes and analogs thereof, and the pharmaceutical use thereof” (Sanofi, priority 2008, dated 2014).

The assay deals with T1, sodium-proton exchanger of subtype 3 (NHE3) (Homo sapiens, UniProt P48764).
T1 construct: expressed in transfected cells
T1 sequence (P48764 26-834): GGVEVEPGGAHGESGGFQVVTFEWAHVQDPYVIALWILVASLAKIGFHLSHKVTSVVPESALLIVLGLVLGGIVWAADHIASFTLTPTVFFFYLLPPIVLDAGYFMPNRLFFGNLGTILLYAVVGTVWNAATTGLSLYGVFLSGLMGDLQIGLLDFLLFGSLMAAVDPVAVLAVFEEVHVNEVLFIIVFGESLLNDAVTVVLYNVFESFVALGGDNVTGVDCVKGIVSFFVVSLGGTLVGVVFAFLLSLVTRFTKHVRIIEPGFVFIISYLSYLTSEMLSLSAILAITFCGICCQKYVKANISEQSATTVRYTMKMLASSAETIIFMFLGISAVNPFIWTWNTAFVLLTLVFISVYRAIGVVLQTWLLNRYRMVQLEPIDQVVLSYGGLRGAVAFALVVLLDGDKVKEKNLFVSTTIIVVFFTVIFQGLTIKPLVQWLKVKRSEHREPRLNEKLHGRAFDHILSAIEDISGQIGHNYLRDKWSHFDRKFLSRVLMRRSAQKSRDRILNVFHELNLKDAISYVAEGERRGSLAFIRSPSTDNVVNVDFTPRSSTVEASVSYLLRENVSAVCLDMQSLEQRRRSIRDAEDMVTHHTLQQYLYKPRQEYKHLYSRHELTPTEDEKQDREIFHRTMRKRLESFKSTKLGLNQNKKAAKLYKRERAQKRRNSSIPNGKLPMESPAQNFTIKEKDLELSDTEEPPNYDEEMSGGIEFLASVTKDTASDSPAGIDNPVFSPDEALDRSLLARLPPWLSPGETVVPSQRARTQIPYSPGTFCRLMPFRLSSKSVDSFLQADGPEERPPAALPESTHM
Put plainly: Recovery of intracellular pH (pHi) after acidification in LAP1 cells stably expressing NHE3 (BCECF fluorescence, FLIPR). The class given is cell-based. As to conditions: LAP1 cells stably expressing NHE3; pH recovery after acidification; range 1 is % inhibition at 10 μM; read-out: Activity range (inhibitory effect on NHE3).

Where only a bound is given, the exact number is not on record here.

Regarding `CC(=O)Nc1cccc(O[C@H]2c3ccccc3C[C@@H]2N2CC[C@@H](CO)C2)c1` (racemic) [Example 680, N-{3-[rac-trans-(1,2)-2-((R)-3-hydroxymethylpyrrolidin-1-yl)indan-1-yloxy]phenyl}acetamide], the IC50 is 1 to 10 µM.

Consider `Clc1cc(Cl)c2c(c1)[C@H](Oc1ccc(-n3cncn3)cc1)[C@@H](N1CCOCC1)C2` (racemic) [Example 549, 4-[rac-trans-(1,2)-4,6-dichloro-1-(4-[1,2,4]triazol-1-ylphenoxy)indan-2-yl]morpholine], for which the inhibition at 10 µM is 20 to 50%.

For the molecule `N[C@@H]1CCCN([C@H]2CCc3ccccc3[C@@H]2Oc2ccc(F)cc2)C1` (racemic) [Example 70, (R)-1-[rac-trans-(1,2)-1-(4-fluorophenoxy)-1,2,3,4-tetrahydronaphthalen-2-yl]piperidin-3-ylamine], the inhibition at 10 µM was in the range of 20 to 50%.

For `CC1(C)NC(=O)N(c2ccc(F)c(O[C@H]3c4cc(Cl)cc(F)c4C[C@@H]3N3CC[C@@H](O)C3)c2)C1=O` [Example 420, 3-{3-[(1S,2S)-6-chloro-4-fluoro-2-((R)-3-hydroxypyrrolidin-1-yl)indan-1-yloxy]-4-fluorophenyl}-5,5-dimethylimidazolidine-2,4-dione], the IC50 is 1 to 10 µM.

`O=C1CCCN1c1ccc(O[C@H]2c3cc(Cl)cc(Cl)c3C[C@@H]2N2CCCC2)cc1` [Example 260, 1-[4-((1S,2S)-4,6-dichloro-2-pyrrolidin-1-ylindan-1-yloxy)phenyl]pyrrolidin-2-one]: the IC50 was 1 to 10 µM.

Turning to `COC(=O)c1nccn1-c1ccc(O[C@H]2c3cc(Cl)cc(Cl)c3C[C@@H]2N2CC[C@@H](O)C2)c(F)c1` [Example 740, 1-{4-[trans-(1S,2S)-4,6-Dichloro-2-((R)-3-hydroxy-pyrrolidin-1-yl)-indan-1-yloxy]-3-fluoro-phenyl}-1H-imidazole-2-carboxylic acid methyl ester], the IC50 is under 1 µM.

With `CC(=O)Nc1cccc(O[C@@H]2c3ccccc3C[C@H]2N2CCC(N)C2)c1` (mixture of isomers) [Example 687, N-{3-[rac-trans-(1,2)-2-(3-aminopyrrolidin-1-yl)indan-1-yloxy]phenyl}acetamide], the IC50 lay within 1 to 10 µM.

Take `CS(=O)(=O)c1ccc(O[C@H]2c3cc(Cl)cc(F)c3C[C@@H]2N2CC[C@@H](O)C2)c(Cl)c1` [Example 106, (R)-1-[trans-(1S,2S)-6-chloro-1-(2-chloro-4-methanesulfonylphenoxy)-4-fluoroindan-2-yl]pyrrolidin-3-ol]: the IC50 is under 1 µM.

As to `Cc1nnnn1-c1ccc(O[C@H]2c3cc(Cl)cc(Cl)c3C[C@@H]2N2CC[C@@H](O)C2)cc1` [Example 112, (R)-1-{(1S,2S)-4,6-dichloro-1-[4-(5-methyltetrazol-1-yl)phenoxy]indan-2-yl}pyrrolidin-3-ol], the IC50 was 1 to 10 µM.

On to `O=c1[nH]ccn1-c1ccc(O[C@H]2c3cc(Cl)cc(Cl)c3C[C@@H]2N2CC[C@@H](O)C2)cc1` [Example 325, 1-{4-[(1S,2S)-4,6-dichloro-2-((R)-3-hydroxypyrrolidin-1-yl)indan-1-yloxy]phenyl}-1,3-dihydroimidazol-2-one], for which the IC50 is under 1 µM.

`N#Cc1ccc2cccc(O[C@H]3c4ccccc4CC[C@@H]3N3CCC[C@H](N)C3)c2n1` (racemic) [Example 596, 8-[rac-trans-(1,2)-2-((S)-3-aminopiperidin-1-yl)-1,2,3,4-tetrahydronaphthalen-1-yloxy]quinoline-2-carbonitrile]: the IC50 was in the range of 1 to 10 µM.

Turning to `NCC1CCN([C@@H]2Cc3ccccc3[C@H]2Oc2ccc(Br)cc2-c2cc[nH]n2)CC1` (racemic) [Example 599, C-(1-{rac-trans-(1,2)-1-[4-bromo-2-(1H-pyrazol-3-yl)phenoxy]indan-2-yl}piperidin-4-yl)methylamine], the IC50 lay within 1 to 10 µM.

Turning to `N[C@@H]1CCCN([C@H]2CCc3ccccc3[C@@H]2Oc2ccc3oc(=O)sc3c2)C1` (racemic) [Example 578, 5-[rac-trans-(1,2)-2-((R)-3-aminopiperidin-1-yl)-1,2,3,4-tetrahydronaphthalen-1-yloxy]benzo[1,3]oxathiol-2-one], the inhibition at 10 µM was 20 to 50%.
